According to US10624871B2, “Bismuth(III) compounds and methods thereof” (priority 2016, dated 2020):

Tests used:
E. coli (NDM-1+) [1] = test: In vitro cell infection assay in MDCK cells; assay type: cell-based
Procedure: To further evaluate the antimicrobial efficacy of CBS in combination with MER, we exploited the in vitro bacterial infection model in mammalian cell. Typically, MDCK cells were cultured in minimum essential Media (MEM) supplemented with fetal bovine serum (FBS, 10%) and grown at 37° C. in the 5% CO2 humidified atmosphere for three days. The MDCK cells were then washed three times with phosphate buffer saline (PBS) solution, liberated with trypsin-EDTA (0.25%) and re-suspended by culture medium. About 500 μL of re-suspended cells were seeded in 24-well plates and incubated as described above for 48 hrs to ensure confluency, resulting in about 1.0×10^5 cells per well by typan blue assay. The freshly grown logarithmic E. coli (NDM-1^+) bacterial cells were washed with PBS for three times and re-suspended in MEM/10% FBS. The density was adjusted to 2×10^7 CFU mL^−1. Then 500 μL of bacterial suspension was added to each well and substituted for the previous MDCK culture medium. […]
For those cell-invaded bacteria experiments, the infected cells were incubated in culture medium supplemented with 100 μg mL^−1 ciprofloxacin for 1 h to remove extracellular bacteria. […] The assay was performed in triplicate, repeated three times and the results were expressed as average ±SD.

NDM-1 [2] = target: T1, NDM-1 (Klebsiella pneumoniae, UniProt C7C422); test: Zn(II) supplementation assay; assay type: biochemical; conditions: Bi-NDM-1 from apo-NDM-1 and CBS; ZnSO4 up to 2 molar equivalents; apo-NDM-1 + 2 eq Zn = 1
T1 sequence (C7C422 whole entry, looked up): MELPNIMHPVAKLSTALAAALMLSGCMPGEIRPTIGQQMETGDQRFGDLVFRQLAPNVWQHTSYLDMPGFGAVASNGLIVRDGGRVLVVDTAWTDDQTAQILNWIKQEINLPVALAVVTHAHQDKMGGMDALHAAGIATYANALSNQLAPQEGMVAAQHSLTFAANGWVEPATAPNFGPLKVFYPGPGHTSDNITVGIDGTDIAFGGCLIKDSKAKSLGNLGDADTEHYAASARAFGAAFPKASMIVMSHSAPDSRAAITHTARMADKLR
Procedure: To investigate whether enzyme inhibition can be reversed, enzyme activities of apo-NDM-1 and Bi-NDM-1 were compared with the supplementation of Zn(II). Bi-NDM-1 (50 nM) was prepared by pre-incubation of apo-NDM-1 with CBS for 2 h at 25° C. and the bound Bi was verified using ICP-MS. The above protein solutions were mixed with ZnSO4 at concentration up to 2 molar equivalents to NDM-1 and 100 μM MER. The change in absorbance at 300 nm was monitored in a 1 cm quartz cuvette using Varian Cary® 50 UV-visible spectrophotometer at 25° C. for reaction rate calculations. Reaction rate of apo-NDM-1 with addition of 2 molar equivalents of ZnSO4 was normalized to be 1. […]. […] To confirm this, the metal contents of both Zn(II) and Bi(III) were monitored by inductively-coupled plasma mass spectrometry (ICP-MS) as described below.

E. coli (NDM-1+) [3] = test: Murine peritonitis infection model; assay type: in vivo, BALB/c mice; conditions: MER (5 mg kg^−1) co-administered with CBS (20 mg kg^−1), i.p., day 4 post infection
Procedure: FIG. 15 is a survival curve showing efficacies in a murine peritonitis infection model. BALB/c mice were infected by a lethal dose of E. coli clinical isolate (NDM-1) via i.p. injection and treated with one dose and 4 h post infection, followed by twice-daily treatment via i.p. injection. Five groups of mice were treated with MER (5 mg kg^−1), CBS (20 mg kg^−1), the combination of MER (5 mg kg^−1) and CBS (20 mg kg^−1), CBS (20 mg kg^−1, in the absence of bacteria) and PBS, respectively. P<0.001, Mantel-Cox test.
Briefly, an overnight culture of E. coli (NDM-1^+) was performed 1:250 dilution in 50 mL LB broth and re-grew to about OD of 0.3 in a 250-mL flask after 2.5 hrs shaking at 37° C., 250 rpm. The resulting bacterial pellets were collected and washed by PBS three times for further use. For bacterial infection, mice (female BALB/c strain, 6-8 weeks of age, 18-22 g of weight) were induced intraperitoneally (i.p.) with a dose of 10^5 CFU bacteria in a 400 μL aliquot of PBS supplemented with 2% mucin. 4 groups of mice were i.p. administered 4 hrs post-infection with a 100 μL aliquot of PBS, MER, CBS and a combination of MER and CBS, respectively. Body weights and mice survival were monitored for endpoint until day 4 post infection.

VIM-2 = VIM-2 (Escherichia coli, UniProt Q5U7L7); test: IC50 enzyme inhibition assay, MER hydrolysis; assay type: biochemical; conditions: Zn2-VIM-2, 1 h preincubation at 25° C., 100 μM MER
From the text: (§1) […]. The initial rate were extracted and calculated from each reaction curves.

NDM-1 [4] = target: T1, NDM-1; test: IC50 enzyme inhibition assay, MER hydrolysis; assay type: biochemical; conditions: Zn2-NDM-1 50 nM, 1 h preincubation at 25° C., 100 μM MER
From the text: as §1

E. coli (VIM-2+) = test: Microdilution MIC and MBC assay, FICI; assay type: cell-based; conditions: Bi(III) compound at 32 μg mL−1, E. coli (VIM-2+)

O=C([O-])CC([O-])(CC(=O)[O-])C(=O)[O-].O=C([O-])CC([O-])(CC(=O)[O-])C(=O)[O-].[Bi+3].[Bi+3].[K+] [Complex 10, colloidal bismuth subcitrate]
lowering of intracellular bacterial density compared with mere MER, cell-invaded model (E. coli (NDM-1+) [1]; MER (2×MIC) and CBS): 9.22 fold
bacterial load, cell-associated model (E. coli (NDM-1+) [1]; MER in the presence of CBS (32 μg mL^−1)): ≤ 10^4 CFU
enzyme activity restored upon supplementation of Zn(II) to Bi-NDM-1 (NDM-1 [2]): 25%
survival rate at the endpoint of experiment (E. coli (NDM-1+) [3]): 50%
IC50 (VIM-2): 44.5 ± 3.94 µM
IC50 (NDM-1 [4]): 5.83 ± 0.53 µM
MBC of MER with Bi(III) compound (E. coli (VIM-2+)): 1 µg/mL
MIC of MER with Bi(III) compound (E. coli (VIM-2+)): 0.5 µg/mL
